Assays:
[1] = molecular target: 5-hydroxytryptamine receptor 2B (Homo sapiens) (UniProt P41595); settings: Compound concentration 10.0 uM
[2] = molecular target: Myosin-IIIb (Homo sapiens) (UniProt Q8WXR4); settings: Compound concentration 1000.0 nM
[3] = tested on: Phosphatidylinositol 4,5-bisphosphate 3-kinase catalytic subunit alpha isoform (Homo sapiens), P42336 [E545K]; settings: Compound concentration 1000.0 nM
[4] = molecular target: TGF-beta receptor type-1 (Homo sapiens) (UniProt P36897); settings: Compound concentration 1000.0 nM
[5] = molecular target: G protein-coupled receptor kinase 3 (Homo sapiens) (UniProt P35626); settings: Compound concentration 1000.0 nM
[6] = molecular target: Casein kinase I isoform alpha-like (Homo sapiens) (UniProt Q8N752); settings: Compound concentration 1000.0 nM
[7] = molecular target: Serine/threonine-protein kinase PLK4 (Homo sapiens) (UniProt O00444); settings: Compound concentration 1000.0 nM
[8] = molecular target: RAC-gamma serine/threonine-protein kinase (Homo sapiens) (UniProt Q9Y243); settings: Compound concentration 1000.0 nM
[9] = molecular target: Serine/threonine-protein kinase Nek1 (Homo sapiens) (UniProt Q96PY6); settings: Compound concentration 1000.0 nM
[10] = tested on: Mast/stem cell growth factor receptor Kit (Homo sapiens), P10721 [V559D,T670I]; settings: Compound concentration 1000.0 nM
[11] = molecular target: AP2-associated protein kinase 1 (Homo sapiens) (UniProt Q2M2I8); settings: Compound concentration 1000.0 nM
[12] = tested on: Phosphatidylinositol 4,5-bisphosphate 3-kinase catalytic subunit alpha isoform (Homo sapiens), P42336 [C420R]; settings: Compound concentration 1000.0 nM
[13] = molecular target: Mitogen-activated protein kinase 12 (Homo sapiens) (UniProt P53778); settings: Compound concentration 1000.0 nM
[14] = molecular target: Dual specificity protein kinase CLK1 (Homo sapiens) (UniProt P49759); settings: Compound concentration 1000.0 nM
[15] = tested on: ALK tyrosine kinase receptor (Homo sapiens), Q9UM73 [L1196M]; settings: Compound concentration 1000.0 nM
[16] = molecular target: Mitogen-activated protein kinase kinase kinase 13 (Homo sapiens) (UniProt O43283); settings: Compound concentration 1000.0 nM
[17] = molecular target: Mitogen-activated protein kinase kinase kinase 5 (Homo sapiens) (UniProt Q99683); settings: Compound concentration 1000.0 nM
[18] = molecular target: Serine/threonine-protein kinase BRSK1 (Homo sapiens) (UniProt Q8TDC3); settings: Compound concentration 1000.0 nM
[19] = molecular target: Serine/threonine-protein kinase WNK2 (Homo sapiens) (UniProt Q9Y3S1); settings: Compound concentration 1000.0 nM
[20] = molecular target: Dual specificity testis-specific protein kinase 1 (Homo sapiens) (UniProt Q15569); settings: Compound concentration 1000.0 nM
[21] = tested on: Epidermal growth factor receptor (Homo sapiens), P00533 [UNDEFINED MUTATION]; settings: Compound concentration 1000.0 nM
[22] = molecular target: Dual specificity mitogen-activated protein kinase kinase 7 (Homo sapiens) (UniProt O14733); settings: Compound concentration 1000.0 nM
[23] = tested on: Hepatocyte growth factor receptor (Homo sapiens), P08581 [M1250T]; settings: Compound concentration 1000.0 nM
[24] = molecular target: Activin receptor type-1-like (Homo sapiens) (UniProt P37023); settings: Compound concentration 1000.0 nM
[25] = molecular target: Epithelial discoidin domain-containing receptor 1 (Homo sapiens) (UniProt Q08345); settings: Compound concentration 1000.0 nM
[26] = molecular target: Tyrosine-protein kinase ABL2 (Homo sapiens) (UniProt P42684); settings: Compound concentration 1000.0 nM
[27] = molecular target: Serine/threonine-protein kinase pim-2 (Homo sapiens) (UniProt Q9P1W9); settings: Compound concentration 1000.0 nM
[28] = molecular target: High affinity nerve growth factor receptor (Homo sapiens) (UniProt P04629); settings: Compound concentration 1000.0 nM
[29] = molecular target: Phosphorylase b kinase gamma catalytic chain, skeletal muscle/heart isoform (Homo sapiens) (UniProt Q16816); settings: Compound concentration 1000.0 nM
[30] = molecular target: Mitogen-activated protein kinase 14 (Homo sapiens) (UniProt Q16539); settings: Compound concentration 1000.0 nM
[31] = molecular target: Serine/threonine-protein kinase PLK1 (Homo sapiens) (UniProt P53350); settings: Compound concentration 1000.0 nM
[32] = molecular target: Interleukin-1 receptor-associated kinase 3 (Homo sapiens) (UniProt Q9Y616); settings: Compound concentration 1000.0 nM
[33] = tested on: Phosphatidylinositol 4,5-bisphosphate 3-kinase catalytic subunit alpha isoform (Homo sapiens), P42336 [H1047Y]; settings: Compound concentration 1000.0 nM
[34] = molecular target: Mitogen-activated protein kinase kinase kinase 7 (Homo sapiens) (UniProt O43318); settings: Compound concentration 1000.0 nM
[35] = molecular target: Protein kinase C epsilon type (Homo sapiens) (UniProt Q02156); settings: Compound concentration 1000.0 nM
[36] = molecular target: Alpha-2A adrenergic receptor (Homo sapiens) (UniProt P08913); settings: Compound concentration 10.0 uM
[37] = molecular target: Mitogen-activated protein kinase kinase kinase 4 (Homo sapiens) (UniProt Q9Y6R4); settings: Compound concentration 1000.0 nM
[38] = molecular target: Serine/threonine-protein kinase PAK 6 (Homo sapiens) (UniProt Q9NQU5); settings: Compound concentration 1000.0 nM
[39] = tested on: Epidermal growth factor receptor (Homo sapiens), P00533 [UNDEFINED MUTATION]; settings: Compound concentration 1000.0 nM; remark: listed apart in the source
[40] = molecular target: Mitogen-activated protein kinase kinase kinase kinase 4 (Homo sapiens) (UniProt O95819); settings: Compound concentration 1000.0 nM
[41] = molecular target: Proto-oncogene tyrosine-protein kinase ROS (Homo sapiens) (UniProt P08922); settings: Compound concentration 1000.0 nM
[42] = molecular target: Interleukin-1 receptor-associated kinase 4 (Homo sapiens) (UniProt Q9NWZ3); settings: Compound concentration 1000.0 nM
[43] = molecular target: Ribosomal protein S6 kinase alpha-4 (Homo sapiens) (UniProt O75676); settings: Compound concentration 1000.0 nM
[44] = molecular target: Dual specificity tyrosine-phosphorylation-regulated kinase 1B (Homo sapiens) (UniProt Q9Y463); settings: Compound concentration 1000.0 nM

Sequence of Epidermal growth factor receptor (Homo sapiens), P00533 [UNDEFINED MUTATION] (P00533 whole entry, looked up, change not shown): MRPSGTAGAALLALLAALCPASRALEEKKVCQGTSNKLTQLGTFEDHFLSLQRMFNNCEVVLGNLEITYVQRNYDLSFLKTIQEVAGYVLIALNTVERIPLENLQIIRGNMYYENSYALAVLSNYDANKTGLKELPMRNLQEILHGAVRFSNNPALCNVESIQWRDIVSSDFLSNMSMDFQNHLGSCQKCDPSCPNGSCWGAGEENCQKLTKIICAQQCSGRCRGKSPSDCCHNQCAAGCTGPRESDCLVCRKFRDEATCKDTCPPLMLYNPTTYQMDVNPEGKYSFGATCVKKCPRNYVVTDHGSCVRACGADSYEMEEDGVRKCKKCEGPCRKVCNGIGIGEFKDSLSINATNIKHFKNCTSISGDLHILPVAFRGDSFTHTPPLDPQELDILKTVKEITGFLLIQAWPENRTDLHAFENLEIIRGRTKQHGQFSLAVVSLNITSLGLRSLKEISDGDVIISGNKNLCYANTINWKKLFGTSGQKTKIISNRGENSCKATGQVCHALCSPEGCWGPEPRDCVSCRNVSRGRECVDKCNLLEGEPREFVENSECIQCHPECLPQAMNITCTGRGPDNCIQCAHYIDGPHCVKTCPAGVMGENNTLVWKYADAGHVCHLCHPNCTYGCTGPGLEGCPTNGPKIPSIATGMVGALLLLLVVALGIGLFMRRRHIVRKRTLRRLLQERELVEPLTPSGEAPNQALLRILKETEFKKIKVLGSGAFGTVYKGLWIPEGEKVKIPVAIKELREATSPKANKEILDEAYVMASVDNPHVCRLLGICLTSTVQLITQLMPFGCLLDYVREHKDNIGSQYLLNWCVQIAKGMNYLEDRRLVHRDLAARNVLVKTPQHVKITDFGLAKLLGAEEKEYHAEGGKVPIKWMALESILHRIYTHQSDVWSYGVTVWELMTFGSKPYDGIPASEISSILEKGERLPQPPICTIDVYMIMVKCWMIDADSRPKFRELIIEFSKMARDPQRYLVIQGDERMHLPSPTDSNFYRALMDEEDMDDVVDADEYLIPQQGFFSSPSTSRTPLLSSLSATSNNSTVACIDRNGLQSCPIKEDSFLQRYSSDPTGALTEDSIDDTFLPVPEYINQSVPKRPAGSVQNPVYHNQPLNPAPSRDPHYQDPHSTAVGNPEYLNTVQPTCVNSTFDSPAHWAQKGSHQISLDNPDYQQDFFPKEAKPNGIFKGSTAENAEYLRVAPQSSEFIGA
Sequence of Mitogen-activated protein kinase kinase kinase 7 (Homo sapiens) (O43318 whole entry): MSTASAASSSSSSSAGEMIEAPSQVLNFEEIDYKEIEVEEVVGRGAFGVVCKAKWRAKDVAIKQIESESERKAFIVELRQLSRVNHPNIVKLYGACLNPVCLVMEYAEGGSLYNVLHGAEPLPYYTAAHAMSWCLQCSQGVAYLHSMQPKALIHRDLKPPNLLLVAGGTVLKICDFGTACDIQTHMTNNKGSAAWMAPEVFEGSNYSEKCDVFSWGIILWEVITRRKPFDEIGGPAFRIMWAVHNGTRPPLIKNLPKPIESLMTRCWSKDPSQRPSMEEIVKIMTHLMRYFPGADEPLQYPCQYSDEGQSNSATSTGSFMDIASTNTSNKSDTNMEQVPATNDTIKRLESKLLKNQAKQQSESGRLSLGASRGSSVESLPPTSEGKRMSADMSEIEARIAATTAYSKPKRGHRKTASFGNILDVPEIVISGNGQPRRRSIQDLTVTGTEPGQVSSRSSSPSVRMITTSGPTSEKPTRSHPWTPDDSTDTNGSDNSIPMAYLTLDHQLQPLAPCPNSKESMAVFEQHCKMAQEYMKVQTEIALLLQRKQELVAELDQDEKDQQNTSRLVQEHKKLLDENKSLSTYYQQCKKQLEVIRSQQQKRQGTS
Sequence of Phosphatidylinositol 4,5-bisphosphate 3-kinase catalytic subunit alpha isoform (Homo sapiens), P42336 [E545K] (P42336 whole entry E545K, canonical isoform): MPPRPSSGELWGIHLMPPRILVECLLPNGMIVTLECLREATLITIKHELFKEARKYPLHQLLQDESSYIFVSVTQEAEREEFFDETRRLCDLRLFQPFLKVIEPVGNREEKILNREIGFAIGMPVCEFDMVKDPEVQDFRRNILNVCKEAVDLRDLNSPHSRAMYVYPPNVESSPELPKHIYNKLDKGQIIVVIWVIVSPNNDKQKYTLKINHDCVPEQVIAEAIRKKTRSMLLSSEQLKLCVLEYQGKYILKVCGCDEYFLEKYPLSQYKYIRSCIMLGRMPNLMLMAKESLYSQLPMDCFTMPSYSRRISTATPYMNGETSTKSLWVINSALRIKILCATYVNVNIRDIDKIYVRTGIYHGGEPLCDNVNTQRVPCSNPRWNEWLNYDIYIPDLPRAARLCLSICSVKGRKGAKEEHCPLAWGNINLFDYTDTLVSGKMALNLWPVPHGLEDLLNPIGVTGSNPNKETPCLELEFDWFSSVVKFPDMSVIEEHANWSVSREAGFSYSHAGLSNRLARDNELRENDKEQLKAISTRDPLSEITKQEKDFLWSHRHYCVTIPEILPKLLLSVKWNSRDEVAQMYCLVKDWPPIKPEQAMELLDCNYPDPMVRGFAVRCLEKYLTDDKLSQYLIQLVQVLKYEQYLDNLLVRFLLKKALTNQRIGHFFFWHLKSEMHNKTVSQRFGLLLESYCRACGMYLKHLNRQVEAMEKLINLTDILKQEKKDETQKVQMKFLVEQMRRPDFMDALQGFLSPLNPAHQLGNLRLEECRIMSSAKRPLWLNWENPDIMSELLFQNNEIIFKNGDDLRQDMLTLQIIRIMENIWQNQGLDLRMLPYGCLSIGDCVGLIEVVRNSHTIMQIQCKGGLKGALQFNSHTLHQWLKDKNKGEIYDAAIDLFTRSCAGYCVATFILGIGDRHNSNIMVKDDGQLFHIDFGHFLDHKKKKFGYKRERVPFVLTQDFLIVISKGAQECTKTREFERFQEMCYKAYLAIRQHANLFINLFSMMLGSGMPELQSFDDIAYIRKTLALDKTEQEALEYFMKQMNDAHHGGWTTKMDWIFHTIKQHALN
Sequence of Serine/threonine-protein kinase BRSK1 (Homo sapiens) (Q8TDC3 whole entry): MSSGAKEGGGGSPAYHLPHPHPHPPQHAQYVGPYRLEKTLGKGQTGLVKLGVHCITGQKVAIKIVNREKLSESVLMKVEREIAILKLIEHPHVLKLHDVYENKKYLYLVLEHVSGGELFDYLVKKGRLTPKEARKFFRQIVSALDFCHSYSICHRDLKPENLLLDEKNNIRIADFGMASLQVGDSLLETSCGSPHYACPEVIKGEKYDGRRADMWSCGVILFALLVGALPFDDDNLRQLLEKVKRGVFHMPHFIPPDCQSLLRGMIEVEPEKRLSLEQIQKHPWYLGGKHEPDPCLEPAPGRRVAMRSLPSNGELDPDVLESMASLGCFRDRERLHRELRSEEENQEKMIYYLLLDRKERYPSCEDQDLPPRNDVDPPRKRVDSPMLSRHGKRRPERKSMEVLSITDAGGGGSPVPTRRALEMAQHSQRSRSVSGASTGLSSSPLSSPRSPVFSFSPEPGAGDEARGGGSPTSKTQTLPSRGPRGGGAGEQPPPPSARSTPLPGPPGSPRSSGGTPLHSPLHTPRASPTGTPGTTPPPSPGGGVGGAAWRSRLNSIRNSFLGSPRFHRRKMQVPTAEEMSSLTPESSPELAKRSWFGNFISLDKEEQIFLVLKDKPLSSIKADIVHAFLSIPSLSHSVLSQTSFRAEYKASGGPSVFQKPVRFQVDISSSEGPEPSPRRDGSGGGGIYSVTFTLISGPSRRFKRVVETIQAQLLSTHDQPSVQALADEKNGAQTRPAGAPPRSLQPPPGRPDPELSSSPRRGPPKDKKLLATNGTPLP
Sequence of 5-hydroxytryptamine receptor 2B (Homo sapiens) (P41595 whole entry): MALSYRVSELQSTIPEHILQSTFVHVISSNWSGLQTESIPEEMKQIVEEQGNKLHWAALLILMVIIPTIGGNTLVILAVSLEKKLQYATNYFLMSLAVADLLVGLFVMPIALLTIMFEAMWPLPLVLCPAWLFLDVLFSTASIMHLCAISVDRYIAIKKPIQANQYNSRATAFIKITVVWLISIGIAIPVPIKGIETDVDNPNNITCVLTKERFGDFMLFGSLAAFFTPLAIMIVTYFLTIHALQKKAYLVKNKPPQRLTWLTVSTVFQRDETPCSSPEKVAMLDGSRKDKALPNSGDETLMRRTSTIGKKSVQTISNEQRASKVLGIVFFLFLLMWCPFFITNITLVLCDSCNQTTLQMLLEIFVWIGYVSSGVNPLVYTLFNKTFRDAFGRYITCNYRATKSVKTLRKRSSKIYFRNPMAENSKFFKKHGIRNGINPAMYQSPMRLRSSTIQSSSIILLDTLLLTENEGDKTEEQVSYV
Sequence of Interleukin-1 receptor-associated kinase 4 (Homo sapiens) (Q9NWZ3 whole entry): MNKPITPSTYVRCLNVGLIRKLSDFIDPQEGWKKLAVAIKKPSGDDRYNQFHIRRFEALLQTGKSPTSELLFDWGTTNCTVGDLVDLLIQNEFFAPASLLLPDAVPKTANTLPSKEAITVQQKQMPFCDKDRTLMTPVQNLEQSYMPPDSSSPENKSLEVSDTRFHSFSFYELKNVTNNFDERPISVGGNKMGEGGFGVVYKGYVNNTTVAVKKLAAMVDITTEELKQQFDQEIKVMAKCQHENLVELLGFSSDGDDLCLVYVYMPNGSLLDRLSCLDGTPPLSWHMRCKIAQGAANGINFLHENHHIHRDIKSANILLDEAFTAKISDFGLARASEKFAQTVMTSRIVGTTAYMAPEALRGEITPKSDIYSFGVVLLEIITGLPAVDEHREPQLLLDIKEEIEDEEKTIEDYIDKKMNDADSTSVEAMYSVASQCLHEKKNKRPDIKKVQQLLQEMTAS
Sequence of Mitogen-activated protein kinase 12 (Homo sapiens) (P53778 whole entry): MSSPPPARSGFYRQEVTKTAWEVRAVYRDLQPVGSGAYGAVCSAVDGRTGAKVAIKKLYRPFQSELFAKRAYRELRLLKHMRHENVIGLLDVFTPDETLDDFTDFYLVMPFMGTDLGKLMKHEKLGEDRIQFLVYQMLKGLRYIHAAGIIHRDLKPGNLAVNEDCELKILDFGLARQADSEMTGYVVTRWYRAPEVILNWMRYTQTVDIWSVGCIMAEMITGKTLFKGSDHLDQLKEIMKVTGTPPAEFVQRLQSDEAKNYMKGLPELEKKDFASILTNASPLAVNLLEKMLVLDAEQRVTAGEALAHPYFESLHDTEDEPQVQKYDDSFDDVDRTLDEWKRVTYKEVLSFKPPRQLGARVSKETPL

O=C1NC(c2ccccn2)Sc2ccccc21 (stereo not drawn) [BTZO-4]
inactive: inhibition [1] -5.37% | residual activity [2] 96% | residual activity [3] 73% | residual activity [4] 100% | residual activity [6] 89% | residual activity [7] 76% | residual activity [8] 100% | residual activity [9] 100% | residual activity [10] 87% | residual activity [11] 100% | residual activity [12] 100% | residual activity [13] 51% | residual activity [14] 98% | residual activity [15] 97% | residual activity [16] 100% | residual activity [17] 72% | residual activity [18] 76% | residual activity [19] 100% | residual activity [20] 100% | residual activity [21] 100% | residual activity [22] 87% | residual activity [23] 72% | residual activity [24] 70% | residual activity [25] 86% | residual activity [26] 85% | residual activity [27] 88% | residual activity [28] 100% | residual activity [29] 76% | residual activity [30] 81% | residual activity [31] 100% | residual activity [32] 87% | residual activity [33] 67% | residual activity [34] 99% | residual activity [35] 96% | inhibition [36] 12.7% | residual activity [37] 100% | residual activity [38] 100% | residual activity [39] 68% | residual activity [40] 100% | residual activity [41] 95% | residual activity [42] 100% | residual activity [43] 74% | residual activity [44] 100%
active: residual activity [5] 42%

O=c1nc(-c2ccccn2)sc2ccccc12 [BTZO-1]
inactive: inhibition [1] 34.3% | residual activity [2] 79% | residual activity [3] 65% | residual activity [4] 97% | residual activity [5] 51% | residual activity [6] 100% | residual activity [7] 80% | residual activity [8] 100% | residual activity [9] 100% | residual activity [10] 83% | residual activity [11] 100% | residual activity [12] 94% | residual activity [13] 58% | residual activity [14] 99% | residual activity [15] 93% | residual activity [16] 100% | residual activity [17] 75% | residual activity [18] 91% | residual activity [19] 100% | residual activity [20] 84% | residual activity [21] 100% | residual activity [22] 93% | residual activity [23] 98% | residual activity [24] 99% | residual activity [25] 85% | residual activity [26] 87% | residual activity [27] 97% | residual activity [28] 100% | residual activity [29] 84% | residual activity [30] 94% | residual activity [31] 100% | residual activity [32] 82% | residual activity [33] 94% | residual activity [34] 78% | residual activity [35] 100% | inhibition [36] 0.132% | residual activity [37] 92% | residual activity [38] 100% | residual activity [39] 74% | residual activity [40] 100% | residual activity [41] 100% | residual activity [42] 100% | residual activity [43] 80% | residual activity [44] 100%
